# According to patent publication US20050281850A1, “Cosmetic/dermatological inverse emulsions containing calcitriol and clobetasol 17-propionate” (GALDERMA S.A., priority 2004, published 2005):
# Key:
# Format in all cases: physicochemical
# [1] = Stability of calcitriol in Cetiol SN (HPLC assay against reference substance); details: for Calcitriol concentration measured as % relative to T0: 30 ppm in Cetiol SN, 0.4% BHT
# From the text: c) Stability of Calcitriol in Cetiol SN (Cetearyl Isononanoate): 30 ppm solution of calcitriol in qs 100% Cetiol SN (cetearyl isononanoate) in the presence of 0.4% BHT. HPLC assay technique against reference substance. At the initial time (T0), it is considered that the composition comprises 100% calcitriol. Calcitriol concentration measured as % relative to T0: […]
# [2] = Stability of calcitriol in Miglyol 812 (HPLC assay against reference substance); details: for Calcitriol concentration measured as % relative to T0: 30 ppm in Miglyol 812, 0.4% BHT
# From the text: b) Stability of Calcitriol in Miglyol 812 (Caprylic/-15 Capric Triglycerides) 30 ppm solution of calcitriol in qs 100% Miglyol 812 in the presence of 0.4% BHT. HPLC assay technique against reference substance. At the initial time (T0), it is considered that the composition comprises 100% calcitriol. Calcitriol concentration measured as % relative to T0: […]
# [3] = Stability of calcitriol in ethanol (HPLC assay against reference substance); details: 30 ppm in absolute ethanol, 0.02% BHT
# From the text: a) Stability of Calcitriol in Ethanol: 30 ppm solution of calcitriol in qs 100% of absolute ethanol in the presence of 0.02% BHT. HPLC assay technique against reference substance. At the initial time (T0), it is considered that the composition comprises 100% calcitriol. Calcitriol concentration measured as % relative to T0: […]
smiles,measurement,setting,value
C=C1/C(=C\C=C2/CCC[C@]3(C)[C@@H]([C@H](C)CCCC(C)(C)O)CC[C@@H]23)C[C@@H](O)C[C@@H]1O [calcitriol],Calcitriol concentration measured as % relative to T0,"[1]; +4° C., T2 weeks",98.6%
same,Calcitriol concentration measured as % relative to T0,"[1]; +4° C., T4 weeks",98.1%
same,Calcitriol concentration measured as % relative to T0,"[1]; +40° C., T2 weeks",99.0%
same,Calcitriol concentration measured as % relative to T0,"[1]; +40° C., T4 weeks",98.9%
same,Calcitriol concentration measured as % relative to T0,"[1]; RT, T2 weeks",98.7%
same,Calcitriol concentration measured as % relative to T0,"[1]; RT, T4 weeks",98.4%
same,Stability of calcitriol in Cetiol SN (in words),[1]; in Cetiol SN,good stability
same,Calcitriol concentration measured as % relative to T0,"[2]; +4° C., T2 weeks",98.3%
same,Calcitriol concentration measured as % relative to T0,"[2]; +4° C., T4 weeks",105.2%
same,Calcitriol concentration measured as % relative to T0,"[2]; +40° C., T2 weeks",91%
same,Calcitriol concentration measured as % relative to T0,"[2]; +40° C., T4 weeks",93.8%
same,Calcitriol concentration measured as % relative to T0,"[2]; RT, T2 weeks",95.1%
same,Calcitriol concentration measured as % relative to T0,"[2]; RT, T4 weeks",98.0%
same,Stability of calcitriol in Miglyol 812 (in words),[2]; in Miglyol 812,good stability
same,Calcitriol concentration measured as % relative to T0,"[3]; +4° C., T1 week",97.7%
same,Calcitriol concentration measured as % relative to T0,"[3]; +4° C., T2 weeks",98.6%
same,Calcitriol concentration measured as % relative to T0,"[3]; +4° C., T3 weeks",98.1%
same,Calcitriol concentration measured as % relative to T0,"[3]; +4° C., T4 weeks",97.7%
same,Calcitriol concentration measured as % relative to T0,"[3]; +30° C., T2 weeks",93.4%
same,Calcitriol concentration measured as % relative to T0,"[3]; +30° C., T4 weeks",93.0%
same,Calcitriol concentration measured as % relative to T0,"[3]; −18° C., T1 week",100.9%
same,Calcitriol concentration measured as % relative to T0,"[3]; −18° C., T2 weeks",100.5%
same,Calcitriol concentration measured as % relative to T0,"[3]; −18° C., T3 weeks",99.5%
same,Calcitriol concentration measured as % relative to T0,"[3]; −18° C., T4 weeks",99.5%
